Experimental data published in the supplement of paper PMC11451515.

Legend:
Details in all cases: 48 h
SEM cells [1] = assay: cell viability relative to DMSO control; higher = less cytotoxic
Method in brief: (§1)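 In 1536-well plates, 5 μl of leukemia cells were seeded per well: 500 cells/well for NOMO1 or SEM and 1000 cells/well for P12-Ichikawa. Each line had first been adapted for at least four passages in each medium. Library compounds in DMSO were pin-dosed at 11 threefold concentrations between 47 μM and 0.79 nM, and CellTiter-Glo One luminescence was read after 48 h at 37°C. Viability is a per-plate percentage relative to DMSO wells, with cell-free wells as background.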

P12-Ichikawa [2] = assay: as above
Method in brief: as §1

NOMO1 [3] = assay: as above
Method in brief: as §1

SEM cells [4] = assay: AUC of viability dose-response curve (% viability x log10 dose units); higher = less sensitive
Method in brief: (§2)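 Over 48 h at 37°C, leukemia cells in 1536-well plates (500 or 1000 cells/well), adapted to each medium, received library compounds in DMSO at 11 threefold doses from 47 μM to 0.79 nM. CellTiter-Glo One luminescence, normalised per plate to DMSO and cell-free wells, was fitted by a four-parameter log-logistic function of log10 dose. The area under the curve was then integrated by trapezoidal rule, after scaling curves above full viability and removing those that failed quality control.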

P12-Ichikawa [5] = assay: as above
Method in brief: as §2

NOMO1 [6] = assay: as above
Method in brief: as §2

O=C(c1ccc(F)cc1)C1CCN(CCn2c(=O)[nH]c3ccccc3c2=O)CC1
cell viability [%]
Details | NOMO1 [3] | P12-Ichikawa [2] | SEM cells [1]
HPLM + 10% dialyzed FBS, 0.000781 µM | 122 | – | 97.6
HPLM + 10% dialyzed FBS, 0.00234 µM | 117 | – | 103
HPLM + 10% dialyzed FBS, 0.00702 µM | 111 | – | 112
HPLM + 10% dialyzed FBS, 0.0211 µM | 128 | – | 101
HPLM + 10% dialyzed FBS, 0.0632 µM | 136 | – | 101
HPLM + 10% dialyzed FBS, 0.19 µM | 114 | – | 98.5
HPLM + 10% dialyzed FBS, 0.569 µM | 127 | – | 119
HPLM + 10% dialyzed FBS, 1.71 µM | 120 | – | 109
HPLM + 10% dialyzed FBS, 5.12 µM | 143 | – | 104
HPLM + 10% dialyzed FBS, 15.4 µM | 111 | – | 95.7
HPLM + 10% dialyzed FBS, 46.1 µM | 104 | – | 93
RPMI 5 mM glucose + 10% FBS, 0.000781 µM | 107 | – | 118
RPMI 5 mM glucose + 10% FBS, 0.00234 µM | 118 | – | 121
RPMI 5 mM glucose + 10% FBS, 0.00702 µM | 117 | – | 126
RPMI 5 mM glucose + 10% FBS, 0.0211 µM | 118 | – | 126
RPMI 5 mM glucose + 10% FBS, 0.0632 µM | 105 | – | 106
RPMI 5 mM glucose + 10% FBS, 0.19 µM | 111 | – | 120
RPMI 5 mM glucose + 10% FBS, 0.569 µM | 127 | – | 120
RPMI 5 mM glucose + 10% FBS, 1.71 µM | 106 | – | 119
RPMI 5 mM glucose + 10% FBS, 5.12 µM | 105 | – | 119
RPMI 5 mM glucose + 10% FBS, 15.4 µM | 111 | – | 125
RPMI 5 mM glucose + 10% FBS, 46.1 µM | 98.8 | – | 116
RPMI 5 mM glucose + 10% dialyzed FBS, 0.000781 µM | – | 121 | –
RPMI 5 mM glucose + 10% dialyzed FBS, 0.00234 µM | – | 125 | –
RPMI 5 mM glucose + 10% dialyzed FBS, 0.00702 µM | – | 118 | –
RPMI 5 mM glucose + 10% dialyzed FBS, 0.0211 µM | – | 120 | –
RPMI 5 mM glucose + 10% dialyzed FBS, 0.0632 µM | – | 118 | –
RPMI 5 mM glucose + 10% dialyzed FBS, 0.19 µM | – | 121 | –
RPMI 5 mM glucose + 10% dialyzed FBS, 0.569 µM | – | 140 | –
RPMI 5 mM glucose + 10% dialyzed FBS, 1.71 µM | – | 110 | –
RPMI 5 mM glucose + 10% dialyzed FBS, 5.12 µM | – | 116 | –
RPMI 5 mM glucose + 10% dialyzed FBS, 15.4 µM | – | 112 | –
RPMI 5 mM glucose + 10% dialyzed FBS, 46.1 µM | – | 102 | –

AUC of viability dose-response curve
Details | NOMO1 [6] | P12-Ichikawa [5] | SEM cells [4]
HPLM + 10% dialyzed FBS | 469 | 455 | 469
RPMI 5 mM glucose + 10% FBS | 457 | 448 | 474
RPMI 5 mM glucose + 10% dialyzed FBS | 453 | 451 | 466

CCOc1cc2c(c(F)c1OCC)C(=N)N(CC(=O)c1cc(N3CCOCC3)c(OC)c(C(C)(C)C)c1)C2
cell viability [%]
Details | NOMO1 [3] | P12-Ichikawa [2] | SEM cells [1]
HPLM + 10% dialyzed FBS, 0.000781 µM | 98.4 | 104 | 96.2
HPLM + 10% dialyzed FBS, 0.00234 µM | 121 | 105 | 95.6
HPLM + 10% dialyzed FBS, 0.00702 µM | 118 | 107 | 95.7
HPLM + 10% dialyzed FBS, 0.0211 µM | 138 | 114 | 101
HPLM + 10% dialyzed FBS, 0.0632 µM | 115 | 112 | 94
HPLM + 10% dialyzed FBS, 0.19 µM | 148 | 111 | 110
HPLM + 10% dialyzed FBS, 0.569 µM | 131 | 115 | 117
HPLM + 10% dialyzed FBS, 1.71 µM | 125 | 115 | 108
HPLM + 10% dialyzed FBS, 5.12 µM | 142 | 116 | 104
HPLM + 10% dialyzed FBS, 15.4 µM | 127 | 118 | 97.8
HPLM + 10% dialyzed FBS, 46.1 µM | 118 | 100 | 59.8
RPMI 5 mM glucose + 10% FBS, 0.000781 µM | 109 | 110 | 110
RPMI 5 mM glucose + 10% FBS, 0.00234 µM | 112 | 124 | 98.1
RPMI 5 mM glucose + 10% FBS, 0.00702 µM | 104 | 128 | 93.9
RPMI 5 mM glucose + 10% FBS, 0.0211 µM | 109 | 118 | 113
RPMI 5 mM glucose + 10% FBS, 0.0632 µM | 130 | 126 | 111
RPMI 5 mM glucose + 10% FBS, 0.19 µM | 108 | 132 | 103
RPMI 5 mM glucose + 10% FBS, 0.569 µM | 123 | 128 | 114
RPMI 5 mM glucose + 10% FBS, 1.71 µM | 121 | 127 | 121
RPMI 5 mM glucose + 10% FBS, 5.12 µM | 122 | 124 | 108
RPMI 5 mM glucose + 10% FBS, 15.4 µM | 135 | 131 | 107
RPMI 5 mM glucose + 10% FBS, 46.1 µM | 126 | 108 | 52.5
RPMI 5 mM glucose + 10% dialyzed FBS, 0.000781 µM | 113 | 108 | 83.9
RPMI 5 mM glucose + 10% dialyzed FBS, 0.00234 µM | 122 | 114 | 105
RPMI 5 mM glucose + 10% dialyzed FBS, 0.00702 µM | 121 | 111 | 99.8
RPMI 5 mM glucose + 10% dialyzed FBS, 0.0211 µM | 129 | 118 | 101
RPMI 5 mM glucose + 10% dialyzed FBS, 0.0632 µM | 131 | 125 | 119
RPMI 5 mM glucose + 10% dialyzed FBS, 0.19 µM | 124 | 117 | 116
RPMI 5 mM glucose + 10% dialyzed FBS, 0.569 µM | 124 | 119 | 117
RPMI 5 mM glucose + 10% dialyzed FBS, 1.71 µM | 139 | 117 | 124
RPMI 5 mM glucose + 10% dialyzed FBS, 5.12 µM | 141 | 113 | 117
RPMI 5 mM glucose + 10% dialyzed FBS, 15.4 µM | 138 | 120 | 125
RPMI 5 mM glucose + 10% dialyzed FBS, 46.1 µM | 130 | 105 | 74.4

AUC of viability dose-response curve
Details | NOMO1 [6] | P12-Ichikawa [5] | SEM cells [4]
HPLM + 10% dialyzed FBS | 464 | 465 | 465
RPMI 5 mM glucose + 10% FBS | 435 | 472 | 464
RPMI 5 mM glucose + 10% dialyzed FBS | 453 | 475 | 453

c1ccc(-c2nn3c(c2-c2ccnc4cc(OCCN5CCOCC5)ccc24)CCC3)nc1
cell viability [%]
Details | NOMO1 [3] | P12-Ichikawa [2] | SEM cells [1]
HPLM + 10% dialyzed FBS, 0.000781 µM | 122 | 120 | 77.4
HPLM + 10% dialyzed FBS, 0.00234 µM | 126 | 114 | 106
HPLM + 10% dialyzed FBS, 0.00702 µM | 113 | 111 | 121
HPLM + 10% dialyzed FBS, 0.0211 µM | 129 | 119 | 126
HPLM + 10% dialyzed FBS, 0.0632 µM | 133 | 112 | 126
HPLM + 10% dialyzed FBS, 0.19 µM | 119 | 112 | 129
HPLM + 10% dialyzed FBS, 0.569 µM | 124 | 97 | 115
HPLM + 10% dialyzed FBS, 1.71 µM | 108 | 109 | 128
HPLM + 10% dialyzed FBS, 5.12 µM | 117 | 103 | 145
HPLM + 10% dialyzed FBS, 15.4 µM | 96.1 | 94.9 | 127
HPLM + 10% dialyzed FBS, 46.1 µM | 70.6 | 84.5 | 110
RPMI 5 mM glucose + 10% FBS, 0.000781 µM | 86 | 112 | 102
RPMI 5 mM glucose + 10% FBS, 0.00234 µM | 99.6 | 117 | 125
RPMI 5 mM glucose + 10% FBS, 0.00702 µM | 107 | 123 | 132
RPMI 5 mM glucose + 10% FBS, 0.0211 µM | 105 | 115 | 125
RPMI 5 mM glucose + 10% FBS, 0.0632 µM | 111 | 112 | 143
RPMI 5 mM glucose + 10% FBS, 0.19 µM | 108 | 96.2 | 134
RPMI 5 mM glucose + 10% FBS, 0.569 µM | 108 | 89.8 | 122
RPMI 5 mM glucose + 10% FBS, 1.71 µM | 99.2 | 106 | 138
RPMI 5 mM glucose + 10% FBS, 5.12 µM | 97.8 | 119 | 144
RPMI 5 mM glucose + 10% FBS, 15.4 µM | 91.3 | 73 | 123
RPMI 5 mM glucose + 10% FBS, 46.1 µM | 91.7 | 74.6 | 91.1
RPMI 5 mM glucose + 10% dialyzed FBS, 0.000781 µM | 66.2 | 110 | 68.3
RPMI 5 mM glucose + 10% dialyzed FBS, 0.00234 µM | 116 | 120 | 122
RPMI 5 mM glucose + 10% dialyzed FBS, 0.00702 µM | 102 | 122 | 137
RPMI 5 mM glucose + 10% dialyzed FBS, 0.0211 µM | 108 | 119 | 132
RPMI 5 mM glucose + 10% dialyzed FBS, 0.0632 µM | 106 | 112 | 135
RPMI 5 mM glucose + 10% dialyzed FBS, 0.19 µM | 108 | 113 | 127
RPMI 5 mM glucose + 10% dialyzed FBS, 0.569 µM | 109 | 112 | 125
RPMI 5 mM glucose + 10% dialyzed FBS, 1.71 µM | 101 | 108 | 131
RPMI 5 mM glucose + 10% dialyzed FBS, 5.12 µM | 98.5 | 102 | 117
RPMI 5 mM glucose + 10% dialyzed FBS, 15.4 µM | 92.8 | 99.3 | 129
RPMI 5 mM glucose + 10% dialyzed FBS, 46.1 µM | 83.4 | 84.8 | 82.2

AUC of viability dose-response curve
Details | NOMO1 [6] | P12-Ichikawa [5] | SEM cells [4]
HPLM + 10% dialyzed FBS | 450 | 438 | 458
RPMI 5 mM glucose + 10% FBS | 467 | 420 | 468
RPMI 5 mM glucose + 10% dialyzed FBS | 471 | 448 | 472
